Laboratory results as given in ChEMBL document CHEMBL4002560, “Synthesis and biological evaluation of novel isoxazolines linked via piperazine to 2- benzoisothiazoles as potent apoptotic agents” (Eur J Med Chem, 2017).
Active and inactive are the calls of the source. The rule behind the calls is not given here.

What was measured:
EAT = assay: Cytotoxicity against mouse EAT cells assessed as decrease in cell viability at 50 uM by trypan blue dye exclusion assay; assay type: functional, cell-based; conditions: TDE = time-dependent effect
MDA-MB-231 [1] = assay: Cytotoxicity against human MDA-MB-231 cells assessed as decrease in cell viability at 2 to 200 uM after 16 hrs by MTT assay; assay type: functional, cell-based
[2] = Cytotoxicity against mouse EAT cells assessed as cell death at 50 uM after 16 hrs by trypan blue dye exclusion assay relative to control; assay type: functional
[3] = Induction of apoptosis in mouse EAT cells assessed as early apoptotic cells with membrane blebbing and condensed nuclei at 50 uM after 16 hrs by acridine orange/ethidium bromide staining-based fluorescence microscopic method relative to control; assay type: functional
MDA-MB-231 [4] = assay: Cytotoxicity against human MDA-MB-231 cells assessed as decrease in cell viability after 16 hrs by MTT assay; assay type: functional, cell-based; conditions: MDA-MB-231, 16 h

Row | SMILES | Activity (EAT) | Activity (MDA-MB-231 [1]) | Activity [2] [%] | Activity [3] [%] | IC50 (MDA-MB-231 [4]) [µM]
1 | Fc1ccc(C2=NOC(CN3CCN(c4nsc5ccccc45)CC3)C2)cc1 (stereo unspecified) | Tde | inactive | – | – | –
2 | COc1ccc(C2=NOC(CN3CCN(c4nsc5ccccc45)CC3)C2)cc1OCc1ccccc1 (stereo unspecified) | Tde | – | 44.6 | 50 | 95
3 | COc1cc(C2=NOC(CN3CCN(c4nsc5ccccc45)CC3)C2)cc(OC)c1OC (stereo unspecified) | Tde | inactive | – | – | –
4 | COc1cc(C2=NOC(CN3CCN(c4nsc5ccccc45)CC3)C2)ccc1OCc1ccccc1 (stereo unspecified) | Tde | – | 53 | 67.3 | 30
5 | COc1ccc(C2=NOC(CN3CCN(c4nsc5ccccc45)CC3)C2)cc1OC (stereo unspecified) | Tde | Active | – | – | –
6 | Clc1ccc(C2=NOC(CN3CCN(c4nsc5ccccc45)CC3)C2)cc1 (stereo unspecified) | Tde | – | – | 61.3 | 75
7 | COc1ccc(C2=NOC(CN3CCN(c4nsc5ccccc45)CC3)C2)cc1 (stereo unspecified) | Tde | Active | – | – | –
8 | c1ccc(C2=NOC(CN3CCN(c4nsc5ccccc45)CC3)C2)cc1 (stereo unspecified) | Tde | inactive | 50 | – | –
9 | c1ccc(COc2ccc(C3=NOC(CN4CCN(c5nsc6ccccc56)CC4)C3)cc2)cc1 (stereo unspecified) | Tde | Active | 45.6 | 59 | –
